Assay results taken from patent publication US20260294770A1, “FORMULATIONS OF NARINGENIN” (DEBUT BIOTECHNOLOGY, INC., priority 2023, published 2026).
Entries after “also recorded” stand apart in the source; their conditions may differ.

Experiments:
[1] = tested on: IL23A; assay: Downregulation of gene expression and/or activity, 1% naringenin: IL23A
Source text: (§1) In certain embodiments, administration of a composition comprising naringenin leads to up-regulation of LCE5A, KRT77, ALOXE3, KRT1, HPGD, MUCL1, CASP14, WFDC12, KRT10, DNASE1L2, IL37, SERPINB12, HAL, UPK1A, CALML5, LCE2B, and/or MIR205. In certain embodiments, administration of a composition comprising naringenin leads to down-regulation of CCL11, CSF2, IL23A, IL11, BMP6, IL13RA2, C2CD4A, NR4A2, C2CD4B, FGF2, FARP4, GDF15, THBS1, HSPA1A, PTGS2, and/or DKK1. Tables 10 and 11 provide data for upregulation and downregulation respectively of certain genes after administration of compositions comprising 1% naringenin.
(§2) Interleukin 23A (1L23A) plays a role in the inflammatory pathway. In certain embodiments of the invention, downregulation of IL23A leads to an anti-inflammatory activity. In certain embodiments, the administration of composition comprising naringenin results in at least about 10 to about 20-fold downregulation of expression and/or activity of 1L23A. In certain embodiments, the administration of composition comprising naringenin results in at least about fifteen (15) fold downregulation of expression and/or activity of IL23A.

[2] = tested on: FGF2; assay: Downregulation of gene expression and/or activity, 1% naringenin: FGF2; conditions: negative = downregulation
Source text: as §1

[3] = tested on: DNASE1L2; assay: Upregulation of gene expression and/or activity, 1% naringenin: DNASE1L2
Source text: as §1
Deoxyribonuclease-1-like 2 (DNASE1L2) plays a role in recycling of dying cells. Hair, nails, and the cornified layer of the epidermis, i.e. the stratum corneum, consist of cornified keratinocytes, also known as corneocytes. The process of cornification involves the cross-linking of structural proteins and leads to the high mechanical stability of corneocytes which, along with the formation of stable desmosomal links between cells, is essential for the resistance of epidermal structures to stress from the environment DNASE1L2 is a keratinocyte-specific DNase. DNASE1L2 breakdown of the nucleus in skin appendages and distinct epithelia whereas cornification of the interfollicular epidermis. […]

[4] = tested on: THBS1; assay: Downregulation of gene expression and/or activity, 1% naringenin: THBS1; conditions: negative = downregulation
Source text: as §1

[5] = tested on: CASP14; assay: Upregulation of gene expression and/or activity, 1% naringenin: CASP14
Source text: as §1
Cysteine-aspartic acid protease 14 (CASP14) plays a role in keratinocyte terminal differentiation, which is important for the formation of the skin barrier. In certain embodiments, administration of compositions comprising naringenin leads to upregulation of CASP14. In certain embodiments, this upregulation of CASP14 leads to the improved skin barrier formation. In certain embodiments, the administration of composition comprising naringenin results in at least about 5 to about 20-fold upregulation of expression and/or activity of CASP14. In certain embodiments, the administration of composition comprising naringenin results in at least about ten (10) fold upregulation of expression and/or activity of CASP14.

[6] = Solubility of naringenin in various solvents; assay type: physicochemical
Method: The invention recognizes that the solvent used for preparing naringenin compositions should be any solvent acceptable to be used in cosmetic formulations. In certain embodiments of the invention, naringenin is dissolved in a solvent selected from a group consisting of: dimethyl isosorbide, ethoxydiglycol, isopropyl lauryl sarcosinate, pentylene glycol, propanediol, 1,2-hexanediol, and/or butylene glycol. In certain preferred embodiments, naringenin is dissolved in dimethyl isosorbide. In certain embodiments, naringenin is dissolved in isopropyl lauryl sarcosinate. In certain embodiments, naringenin is dissolved in ethoxydiglycol. In certain embodiments, the solvent is a glycol. In certain embodiments, the glycol is selected from a group consisting of pentylene glycol, butylene glycol, and any combination thereof. In certain embodiments, the solvent is selected from a group consisting of: phenylpropanol, 1,2-hexanediol, propanediol, isopentyldiol, 1,2 heptanediol, and any combination thereof.
Table 1 provides the solubility data for naringenin in several solvents. […]

[7] = tested on: CSF2; assay: Downregulation of gene expression and/or activity, 1% naringenin: CSF2
Source text: as §1
as §2, with “Granulocyte-macrophage colony-stimulating factor (CSF2)” for “Interleukin 23A (1L23A)”, “inflammation and arthritis.” for “the inflammatory pathway.”, “CSF2” for “IL23A”, “anti-inflammatory activity and/or anti-arthritic” for “anti-inflammatory”, “CSF2.” for “1L23A.”, “CSF2.” for “IL23A.”

[8] = tested on: DKK1; assay: Downregulation of gene expression and/or activity, 1% naringenin: DKK1; conditions: negative = downregulation
Source text: as §1

[9] = tested on: C2CD4A; assay: Downregulation of gene expression and/or activity, 1% naringenin: C2CD4A; conditions: negative = downregulation
Source text: as §1

O=C1C[C@@H](c2ccc(O)cc2)Oc2cc(O)cc(O)c21 [naringenin, (2S)-5,7-Dihydroxy-2-(4-hydroxyphenyl)-2,3-dihydro-4H-1-benzopyran-4-one]
fold downregulation in expression and/or activity of IL23A [1]: ~18 fold | Fold-increase (downregulation table) FGF2 [2]: −7 fold | Fold-increase in expression and/or activity of DNASE1L2 [3]: ~9 fold | Fold-increase (downregulation table) THBS1 [4]: −6 fold | Fold-increase in expression and/or activity of CASP14 [5]: ~11 fold | Solubility (in words) ([6]; in Helianthus Annuus (Sunflower) Seed Oil / sunflower oil): insoluble in Helianthus Annuus (Sunflower) Seed Oil; also recorded: not soluble in sunflower oil | Solubility (in words) ([6]; in water): poorly soluble or insoluble in water | Naringenin Solubility ([6]; solvent: 1,2 heptanediol): 2.50 % w/w | Naringenin Solubility ([6]; solvent: 1,2 hexanediol): 2.50 % w/w | Naringenin Solubility ([6]; solvent: 1,2 propanediol): 0.00 % w/w | Naringenin Solubility ([6]; solvent: 3-methyl-1,3-butanediol): 0.00 % w/w | Naringenin Solubility ([6]; solvent: Butylene glycol): 2.50 % w/w | Naringenin Solubility ([6]; solvent: C9-12 alkane): 0.00 % w/w | Naringenin Solubility ([6]; solvent: C15-19 alkane): 0.00 % w/w | Naringenin Solubility ([6]; solvent: Capric/caprylic triglyceride): 0.00 % w/w | Naringenin Solubility ([6]; solvent: Di(propylene glycol) dibenzoate): 0.00 % w/w | Naringenin Solubility ([6]; solvent: Dimethyl isosorbide): 15.00 % w/w | Naringenin Solubility ([6]; solvent: Ethoxydiglycol): 20.00 % w/w | Naringenin Solubility ([6]; solvent: Isoamyl laurate): 0.00 % w/w | Naringenin Solubility ([6]; solvent: Isopentyldiol): 2.50 % w/w | Naringenin Solubility ([6]; solvent: Isopropyl lauryol sarcosinate): 10.00 % w/w | Naringenin Solubility ([6]; solvent: Isopropyl myristate): 0.00 % w/w | Naringenin Solubility ([6]; solvent: Neopentyl glycol diethylhexanoate): 0.00 % w/w | Naringenin Solubility ([6]; solvent: Oleyl alcohol): 0.00 % w/w | Naringenin Solubility ([6]; solvent: Pentylene glycol): 2.50 % w/w | Naringenin Solubility ([6]; solvent: Phenylpropanol): 5.00 % w/w | Naringenin Solubility ([6]; solvent: Propanediol): 2.50 % w/w | Naringenin Solubility ([6]; solvent: Squalene): 0.00 % w/w | Naringenin Solubility ([6]; solvent: Tri C12-C13 alkyl citrate): 0.00 % w/w | Naringenin Solubility ([6]; solvent: Tributyl citrate): 0.00 % w/w | Naringenin Solubility ([6]; solvent: Tributyl-O-acetylcitrate): 0.00 % w/w | Naringenin Solubility ([6]; solvent: Triethyl O-acetylcitrate): 0.00 % w/w | Naringenin Solubility ([6]; solvent: Triethyl citrate): 0.00 % w/w | Naringenin Solubility ([6]; solvent: Triisostearin): 0.00 % w/w | Naringenin Solubility ([6]; solvent: jojoba oil): 0.00 % w/w | Naringenin Solubility ([6]; solvent: sunflower oil): 0.00 % w/w | fold downregulation in expression and/or activity of CSF2 [7]: ~18 fold | Fold-increase (downregulation table) DKK1 [8]: −5 fold | Fold-increase (downregulation table) C2CD4A [9]: −10 fold
